{
  "source": "patent US20260335344A1",
  "about": "“NOVEL FORMULATIONS AND USES” (DANSTAR FERMENT AG, priority 2022, published 2026)",
  "key": {"Acinetobacter baumannii": {"test_system": "Acinetobacter baumannii", "experiment": "Relative quantity of Acinetobacter baumannii by metagenomic (16S rRNA) sequencing after L-arabinose treatment", "assay_type": "cell-based", "description": "(§1) The objective of the experiments is to evaluate the effect of L-arabinose at different concentrations on a bacterial pool mimicking the skin microbiota by quantification of the bacterial mix using metagenomic sequencing. Five different types of bacteria are obtained from ATCC®: Micrococcus luteus (Cat. No. 4698), Corynebacterium striatum (Cat. No. BAA-1293), Staphylococcus epidermidis (Cat. No. 12228), Acinetobacter baumannii (Cat. No. 19606) and Streptococcus mitis (Cat. No. NCIMB-13770). The bacteria are common skin bacteria, selected to roughly mimic the skin microbiota. The bacteria are grown on specific media, either solid media (Brain Heart Infusion (BHI) Agar from Condalab (Cat. No. 1048.00) or Trypticase Soy (TS) Agar from Condalab (Cat. No. 1068.00)) or on liquid media (either Brain Heart Infusion Broth from Condalab (Cat. No. 1400.00) or Trypticase Soy Broth from Condalab (Cat. No. 1224.00)). The bacteria culture is performed according to the ATCC instructions and adapted to the specific conditions of each bacterium: all bacteria are grown in BHI medium at 37° C. in an aerobic environment shaking at 120 rpm, except for Streptococcus mitis which requires an anaerobic environment, so without shaking and with paraffin oil from Sigma-Aldrich (Cat. No. 185812) above the medium to cut off contact with air.\n(§2) Growth kinetics are carried out for each bacterium to determine their different growth phases and in particular the time needed to reach the exponential phase. Aerobically growing bacteria are plated on solid medium and then a colony is inoculated into 10 mL of liquid medium. An OD at 600 nm is then taken at regular time intervals from T0, the inoculation time, to obtain a growth curve until reaching the stationary phase. Anaerobically growing bacteria are directly inoculated at 500 μL into 9.5 mL of medium.\n(§3) Bacteria are treated during 6 hours with L-arabinose, diluted in culture medium. L-Arabinose is first resuspended in culture medium at a concentration of 5%. The following dilutions are directly realized in culture medium at the following concentrations: 3.5%, 2%, 1% and 0.5%.\n(§4) Each bacterium from the mix is initially grown independently. Once the exponential phase starts, Corynebacterium striatum, Micrococcus luteus and Staphylococcus epidermidis are mixed and grown in the presence or not of the L-arabinose at different concentrations for 6 hours, before reaching the stationary phase. Acinetobacter baumannii and Streptococcus mitis are grown independently with the L-arabinose due to their specific nature (Biosafety Level 2 (BSL-2) bacteria and anaerobic growth for Streptococcus mitis) and pulled in the final mix. Then, the mix is centrifugated and sent to sequencing. Bacterial DNA is isolated, sequenced, and 16S rRNA sequences are matched to taxonomic databases.\nFIG. 2 depicts the relative quantity of Acinetobacter baumannii at different concentrations of L-arabinose. Relative Acinetobacter baumannii abundance is compared in all samples after metagenomic sequencing. Bacteria are treated with L-arabinose at 5 concentrations: 0.5%, 1%, 2%, 3.5% and 5%. Only the OTU identifying the Acinetobacter baumannii genera is represented.\n(§5) The statistical analysis for FIGS. 2-5 is performed using two-tailed unpaired T-test vs NT-NS (*p-value<0.05, **p-value<0.01, ***p-value<0.001)."}, "[1]": {"test_system": "Staphylococcus epidermidis", "experiment": "Relative quantity of Staphylococcus epidermidis by metagenomic (16S rRNA) sequencing after L-arabinose treatment", "assay_type": "cell-based", "conditions": "6 hours, vs control", "description": "as §1, with “The bacteria culture is performed according to the ATCC instructions and adapted to the specific conditions of each bacterium: all bacteria are grown in BHI medium at 37° C. in an aerobic environment shaking at 120 rpm, except for Streptococcus mitis which requires an anaerobic environment, so without shaking and with paraffin oil from Sigma-Aldrich (Cat. No. 185812) above the medium to cut off contact with air.” left out\nFIG. 4 depicts the relative quantity of Staphylococcus epidermidis at different concentrations of L-arabinose. […]"}, "intestinal sucrase": {"test_system": "intestinal sucrase", "conditions": "role: inhibitor; substrate sucrose; dietary supplement use; cited from earlier work"}, "[2]": {"test_system": "bacterial pool mimicking the skin microbiota", "experiment": "Relative quantity of bacteria in the skin microbiota mix by metagenomic sequencing", "assay_type": "cell-based", "conditions": "6 hours", "description": "as §1, §2, §3, §4\nFIG. 6 depicts the relative quantity of bacteria in the skin microbiota mix at different concentrations of L-arabinose. Relative bacteria abundance is detected in all samples after metagenomic sequencing. The bacteria seeded in the mix are Micrococcus luteus, Corynebacterium striatum, Staphylococcus epidermidis, Acinetobacter baumannii and Streptococcus mitis. Bacteria are treated with L-arabinose at 5 concentrations: 0.5%, 1%, 2%, 3.5% and 5%. All the OTUs detected are sorted by genera to be able to differentiate all the bacteria present in every sample."}, "Micrococcus luteus": {"test_system": "Micrococcus luteus", "experiment": "Relative quantity of Micrococcus luteus by metagenomic (16S rRNA) sequencing after L-arabinose treatment", "assay_type": "cell-based", "conditions": "6 hours, vs control", "description": "as §1, §2, §3, §4, §5\nFIG. 3 depicts the relative quantity of Micrococcus luteus at different concentrations of L-arabinose. Relative Micrococcus luteus abundance is compared in all samples after metagenomic sequencing. Bacteria are treated with L-arabinose at 5 concentrations: 0.5%, 1%, 2%, 3.5% and 5%. Only the OTU identifying the Micrococcus luteus genera is represented."}, "Streptococcus mitis": {"test_system": "Streptococcus mitis", "experiment": "Relative quantity of Streptococcus mitis by metagenomic (16S rRNA) sequencing after L-arabinose treatment", "assay_type": "cell-based", "conditions": "for relative quantity of Streptococcus mitis / increase of relative quantity of Streptococcus mitis: vs control; for increase of relative quantity of Streptococcus mitis: statistically increases", "description": "as §1, §2, §3, §4, §5\nFIG. 5 depicts the relative quantity of Streptococcus mitis at different concentrations of L-arabinose. Relative Streptococcus mitis abundance is compared in all samples after metagenomic sequencing. Bacteria are treated with L-arabinose at 5 concentrations: 0.5%, 1%, 2%, 3.5% and 5%. Only the OTU identifying the Streptococcus mitis genera is represented."}, "[3]": {"conditions": "0.5% to 5% L-arabinose, 6 hours"}},
  "note": "“Also recorded” adds a separate entry of the source.",
  "data": [
    {"smiles": "O=C[C@H](O)[C@@H](O)[C@@H](O)CO", "note": "[L-arabinose]", "values": [
      {"measurement": "effect on Acinetobacter baumannii", "setting": "Acinetobacter baumannii; 0.5% L-arabinose", "value": "promotes Acinetobacter baumannii"},
      {"measurement": "increase of relative quantity of Acinetobacter baumannii compared to the NT-NS control", "setting": "Acinetobacter baumannii; 0.5% L-arabinose, 6 hours, vs NT-NS control", "value": 7, "unit": "%"},
      {"measurement": "effect on Acinetobacter baumannii (dose dependence)", "setting": "Acinetobacter baumannii; [3]", "value": "dose-dependent effect"},
      {"measurement": "relative quantity of Acinetobacter baumannii", "setting": "Acinetobacter baumannii; 1% L-arabinose, 6 hours, vs NT-NS control", "value": "the same than the control"},
      {"measurement": "relative quantity of Acinetobacter baumannii", "setting": "Acinetobacter baumannii; 2% L-arabinose, 6 hours, vs NT-NS control", "value": "the same than the control"},
      {"measurement": "decrease of relative quantity of Acinetobacter baumannii compared to the NT-NS control", "setting": "Acinetobacter baumannii; 5% L-arabinose, 6 hours, vs NT-NS control, statistically decreases", "value": "up to 7%"},
      {"measurement": "relative quantity of Staphylococcus epidermidis", "setting": "[1]; 0.5% L-arabinose", "value": "tendency to decrease"},
      {"measurement": "relative quantity of Staphylococcus epidermidis", "setting": "[1]; other concentrations (1%, 2%, 3.5%, 5%) of L-arabinose", "value": "no statistical differences"},
      {"measurement": "inhibition of sucrose absorption by inhibiting intestinal sucrase", "setting": "intestinal sucrase", "value": "ability to inhibit absorption of sucrose"},
      {"measurement": "relative quantity of bacteria in the skin microbiota mix", "setting": "[2]; 0.5% L-arabinose", "value": "Acinetobacter baumannii is outgrowing the other bacteria"},
      {"measurement": "homeostasis of the skin microbiota", "setting": "[2]; 1% L-arabinose", "value": "maintaining the homeostasis of skin microbiota; also recorded: safekeeping the homeostasis of the skin microbiota"},
      {"measurement": "difference of the bacterial mix compared to the NT-NS control", "setting": "[2]; 1% or 2% L-arabinose, vs NT-NS control", "value": "no significant difference"},
      {"measurement": "homeostasis of the skin microbiota", "setting": "[2]; 2% L-arabinose", "value": "maintaining the homeostasis of skin microbiota; also recorded: safekeeping the homeostasis of the skin microbiota"},
      {"measurement": "relative quantity of bacteria in the skin microbiota mix", "setting": "[2]; 3.5% L-arabinose", "value": "Streptococcus mitis is fast growing at the expense of Acinetobacter baumannii"},
      {"measurement": "relative quantity of bacteria in the skin microbiota mix", "setting": "[2]; 5% L-arabinose", "value": "Streptococcus mitis is fast growing at the expense of Acinetobacter baumannii"},
      {"measurement": "relative quantity of Micrococcus luteus", "setting": "Micrococcus luteus; 0.5% L-arabinose", "value": "inhibit Micrococcus luteus; also recorded: statistically decreases"},
      {"measurement": "relative quantity of Micrococcus luteus", "setting": "Micrococcus luteus; 1% L-arabinose", "value": "no statistically significant change"},
      {"measurement": "relative quantity of Micrococcus luteus", "setting": "Micrococcus luteus; 2% L-arabinose", "value": "statistically significant increase"},
      {"measurement": "relative quantity of Micrococcus luteus", "setting": "Micrococcus luteus; 3.5% L-arabinose", "value": "no statistically significant change"},
      {"measurement": "relative quantity of Micrococcus luteus", "setting": "Micrococcus luteus; 5% L-arabinose", "value": "no statistically significant change"},
      {"measurement": "relative quantity of Streptococcus mitis", "setting": "Streptococcus mitis; 0.5% L-arabinose, 6 hours", "value": "tends to decrease"},
      {"measurement": "effect on Streptococcus mitis (dose dependence)", "setting": "Streptococcus mitis; [3]", "value": "dose-dependent effect"},
      {"measurement": "relative quantity of Streptococcus mitis", "setting": "Streptococcus mitis; 1% L-arabinose, 6 hours", "value": "tends to decrease"},
      {"measurement": "relative quantity of Streptococcus mitis", "setting": "Streptococcus mitis; 2% L-arabinose, 6 hours", "value": "the same than the control"},
      {"measurement": "increase of relative quantity of Streptococcus mitis", "setting": "Streptococcus mitis; 3.5% L-arabinose, 6 hours", "value": "more than 2 times"},
      {"measurement": "increase of relative quantity of Streptococcus mitis", "setting": "Streptococcus mitis; 5% L-arabinose, 6 hours", "value": "more than 2 times"},
      {"measurement": "effect on Streptococcus mitis", "setting": "Streptococcus mitis; higher concentrations of L-arabinose (3.5% and 5%)", "value": "promotes Streptococcus mitis"}
    ]}
  ]
}
